# Measurements taken from patent US12227496B2 (BRISTOL-MYERS SQUIBB COMPANY, priority 2019, dated 2025).
# Target: T1, human FXR (Homo sapiens, UniProt Q96RI1)
# T1 construct: expressed in transfected cells; host or cells: HEK293 cells stably carrying a 5xGal4-response-element firefly luciferase reporter, transiently transfected with pcDNA3.1-Gal4-FXR
# T1 sequence (Q96RI1 262-486 limits assumed): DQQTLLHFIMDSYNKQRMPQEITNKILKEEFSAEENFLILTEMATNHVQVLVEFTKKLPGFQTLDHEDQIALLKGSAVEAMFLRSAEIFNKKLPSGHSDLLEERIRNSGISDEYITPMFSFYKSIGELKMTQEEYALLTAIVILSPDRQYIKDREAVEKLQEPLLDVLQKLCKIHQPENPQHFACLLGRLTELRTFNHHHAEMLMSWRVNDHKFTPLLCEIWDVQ
# Test: transient human FXR/Gal4-luciferase reporter assay
# Type: cell-based
# Settings: Gal4-hFXR LBD fusion, luciferase reporter in HEK293 cells; response relative to 8 μM GW-4064
# Method: A Gal4-hFXR fusion construct reporter system was used as the primary assay to characterize compound activity. A construct including 5 copies of the Gal4 promoter response element upstream of a firefly luciferase reporter cDNA was stably expressed in HEK293 cells. This reporter cell line was maintained in Dulbecco's Modified Eagle's medium (DMEM; Gibco) supplemented with 1% penicillin-streptomycin (P/S) solution, 500 μg/mL Zeocin and 10% charcoal/dextran-treated fetal bovine serum (cs-FBS) at 37° C. in a humidified 5% CO2 atmosphere. […] The day prior to transfection, the reporter cells in culture are detached from the plate with trypsin and plated into a T75 flask at a sufficient density to achieve approximately 90% confluence the next morning. […] The mixture is further diluted with 10 mL of a solution comprised of DMEM, 10% cs-FBS, and 1% P/S immediately prior to transferring to the cells. The maintenance culture media is aspirated from the cells and the final transfection mixture is added before the cells are incubated overnight at 37° C. in a humidified 5% CO2 atmosphere. This protocol can be scaled up, and the transiently transfected cells can be cryopreserved in an assay-ready format. For compound testing, 100 nL of the compounds (serial dilutions in DMSO) are dispensed with an Echo acoustic dispenser (Labcyte) into the wells of a Corning/Costar clear bottom 384-well white plate. The transfected cells are harvested, counted, and diluted such that 10-25,000 cells in 25 μL are plated into each well of the 384-well compound assay plate. The compound-treated cells are incubated overnight at 37° C. in a humidified 5% CO2 atmosphere. The next morning 25 μL of Steady-Glo (Promega) are added to each well of the plate, the mixture is incubated for 15 min. with shaking, and luminescence is measured on an Envision (Perkin Elmer) plate reader.
row,EC50,SMILES
1,402 nM,"CCOc1ccc(-c2cccc(N(CC34CCC(c5nc(C(C)(C)C)no5)(CC3)CC4)C(=O)C3CCC(OC)CC3)c2)cc1 (single isomer, unassigned) [Example 146, N-((4-(3-(tert-butyl)-1,2,4-oxadiazol-5-yl)bicyclo[2.2.2]octan-1-yl)methyl)-N-(4′-ethoxy-[1,1′-biphenyl]-3-yl)-4-methoxycyclohexane-1-carboxamide]"
2,271 nM,"CCOc1ccc(-c2cc(N(CC34CCC(c5noc(C(C)(F)F)n5)(CC3)CC4)C(=O)C3CCC(O)(C(F)(F)F)CC3)ccc2F)cc1 (single isomer, unassigned) [Example 164, N-((4-(5-(1,1-difluoroethyl)-1,2,4-oxadiazol-3-yl)bicyclo[2.2.2]octan-1-yl)methyl)-N-(4′-ethoxy-6-fluoro-[1,1′-biphenyl]-3-yl)-4-hydroxy-4-(trifluoromethyl)cyclohexane-1-carboxamide]"
3,263 nM,"CCOc1ccc(-c2cc(N(CC34CCC(c5noc(C(C)(F)F)n5)(CC3)CC4)C(=O)C3CCC(O)(C(F)(F)F)CC3)ccc2F)cc1 (single isomer, unassigned) [Example 165, N-((4-(5-(1,1-difluoroethyl)-1,2,4-oxadiazol-3-yl)bicyclo[2.2.2]octan-1-yl)methyl)-N-(4′-ethoxy-6-fluoro-[1,1′-biphenyl]-3-yl)-4-hydroxy-4-(trifluoromethyl)cyclohexane-1-carboxamide]"
4,736 nM,"Cc1noc(-c2cccc(N(CC34CCC(c5nc(C)no5)(CC3)CC4)C(=O)C3CCCCC3)c2)n1 [Example 1, N-((4-(3-methyl-1,2,4-oxadiazol-5-yl)bicyclo[2.2.2]octan-1-yl)methyl)-N-(3-(3-methyl-1,2,4-oxadiazol-5-yl)phenyl)cyclohexanecarboxamide]"
5,211 nM,"COC(=O)c1noc(-c2cccc(N(CC34CCC(c5nc(C6CC6)no5)(CC3)CC4)C(=O)C3CCCCC3)c2)n1 [Example 2, Methyl 5-(3-(N-((4-(3-cyclopropyl-1,2,4-oxadiazol-5-yl)bicyclo[2.2.2]octan-1-yl)methyl)cyclohexanecarboxamido)phenyl)-1,2,4-oxadiazole-3-carboxylate]"
6,158 nM,CCc1noc(-c2cccc(N(CC34CCC(c5nc(C)no5)(CC3)CC4)C(=O)C3CCCCC3)c2)n1 [Example 3]
7,49 nM,"CCc1noc(-c2cccc(N(CC34CCC(c5nc(C6CC6)no5)(CC3)CC4)C(=O)C3CCCCC3)c2)n1 [Example 4, N-((4-(3-cyclopropyl-1,2,4-oxadiazol-5-yl)bicyclo[2.2.2]octan-1-yl)methyl)-N-(3-(3-ethyl-1,2,4-oxadiazol-5-yl)phenyl)cyclohexanecarboxamide]"
8,799 nM,"CCc1noc(-c2cccc(N(CC34CCC(c5nc(C6CC6)no5)(CC3)CC4)C(=O)C3CCC(F)(F)CC3)c2)n1 [Example 5, N-((4-(3-cyclopropyl-1,2,4-oxadiazol-5-yl)bicyclo[2.2.2]octan-1-yl)methyl)-N-(3-(3-ethyl-1,2,4-oxadiazol-5-yl)phenyl)-4,4-difluorocyclohexane-1-carboxamide]"
9,118 nM,"COc1ncc(-c2cccc(N(CC34CCC(c5nc(C)no5)(CC3)CC4)C(=O)C3CCCCC3)c2)o1 [Example 6, N-(3-(2-methoxyoxazol-5-yl)phenyl)-N-((4-(3-methyl-1,2,4-oxadiazol-5-yl)bicyclo[2.2.2]octan-1-yl)methyl)cyclohexanecarboxamide]"
10,51 nM,"COc1ncc(-c2cccc(N(CC34CCC(c5nc(C6CC6)no5)(CC3)CC4)C(=O)C3CCCCC3)c2)o1 [Example 7, N-((4-(3-cyclopropyl-1,2,4-oxadiazol-5-yl)bicyclo[2.2.2]octan-1-yl)methyl)-N-(3-(2-methoxyoxazol-5-yl)phenyl)cyclohexanecarboxamide]"
11,19 nM,"CCOc1ncc(-c2cccc(N(CC34CCC(c5nc(C6CC6)no5)(CC3)CC4)C(=O)C3CCCCC3)c2)o1 [Example 8, N-((4-(3-cyclopropyl-1,2,4-oxadiazol-5-yl)bicyclo[2.2.2]octan-1-yl)methyl)-N-(3-(2-ethoxyoxazol-5-yl)phenyl)cyclohexanecarboxamide]"
12,142 nM,"CCOc1ncc(-c2cccc(N(CC34CCC(c5nc(C6CC6)no5)(CC3)CC4)C(=O)C3CCC(F)(F)CC3)c2)o1 [Example 9, N-((4-(3-cyclopropyl-1,2,4-oxadiazol-5-yl)bicyclo[2.2.2]octan-1-yl)methyl)-N-(3-(2-ethoxyoxazol-5-yl)phenyl)-4,4-difluorocyclohexane-1-carboxamide]"
13,71 nM,"CCOc1ncc(-c2cccc(N(CC34CCC(c5nc(C)no5)(CC3)CC4)C(=O)C3CCCCC3)c2)o1 [Example 10, N-(3-(2-ethoxyoxazol-5-yl)phenyl)-N-((4-(3-methyl-1,2,4-oxadiazol-5-yl)bicyclo[2.2.2]octan-1-yl)methyl)cyclohexanecarboxamide]"
14,660 nM,"COc1cc(-c2cccc(N(CC34CCC(c5nc(C)no5)(CC3)CC4)C(=O)C3CCCCC3)c2)no1 [Example 11, N-(3-(5-methoxyisoxazol-3-yl)phenyl)-N-((4-(3-methyl-1,2,4-oxadiazol-5-yl)bicyclo[2.2.2]octan-1-yl)methyl)cyclohexanecarboxamide]"
15,129 nM,"COc1cc(-c2cccc(N(CC34CCC(c5nc(C6CC6)no5)(CC3)CC4)C(=O)C3CCCCC3)c2)no1 [Example 12, N-((4-(3-cyclopropyl-1,2,4-oxadiazol-5-yl)bicyclo[2.2.2]octan-1-yl)methyl)-N-(3-(5-methoxyisoxazol-3-yl)phenyl)cyclohexanecarboxamide]"
16,82 nM,"O=C(C1CCCCC1)N(CC12CCC(c3nc(C4CC4)no3)(CC1)CC2)c1cccc(-c2nc(C3CC3)no2)c1 [Example 13, N-((4-(3-cyclopropyl-1,2,4-oxadiazol-5-yl)bicyclo[2.2.2]octan-1-yl)methyl)-N-(3-(3-cyclopropyl-1,2,4-oxadiazol-5-yl)phenyl)cyclohexanecarboxamide]"
17,272 nM,"O=C(C1CCC(F)(F)CC1)N(CC12CCC(c3nc(C4CC4)no3)(CC1)CC2)c1cccc(-c2nc(C3CC3)no2)c1 [Example 14, N-((4-(3-cyclopropyl-1,2,4-oxadiazol-5-yl)bicyclo[2.2.2]octan-1-yl)methyl)-N-(3-(3-cyclopropyl-1,2,4-oxadiazol-5-yl)phenyl)-4,4-difluorocyclohexane-1-carboxamide]"
18,134 nM,"O=C(C1CCOCC1)N(CC12CCC(c3nc(C4CC4)no3)(CC1)CC2)c1cccc(-c2nc(C3CC3)no2)c1 [Example 15, N-((4-(3-cyclopropyl-1,2,4-oxadiazol-5-yl)bicyclo[2.2.2]octan-1-yl)methyl)-N-(3-(3-cyclopropyl-1,2,4-oxadiazol-5-yl)phenyl)tetrahydro-2H-pyran-4-carboxamide]"
19,3020 nM,"CN1CCC(C(=O)N(CC23CCC(c4nc(C5CC5)no4)(CC2)CC3)c2cccc(-c3nc(C4CC4)no3)c2)CC1 [Example 17, N-((4-(3-cyclopropyl-1,2,4-oxadiazol-5-yl)bicyclo[2.2.2]octan-1-yl)methyl)-N-(3-(3-cyclopropyl-1,2,4-oxadiazol-5-yl)phenyl)-1-methylpiperidine-4-carboxamide]"
20,1170 nM,"O=C(C1CCS(=O)(=O)CC1)N(CC12CCC(c3nc(C4CC4)no3)(CC1)CC2)c1cccc(-c2nc(C3CC3)no2)c1 [Example 18, N-((4-(3-cyclopropyl-1,2,4-oxadiazol-5-yl)bicyclo[2.2.2]octan-1-yl)methyl)-N-(3-(3-cyclopropyl-1,2,4-oxadiazol-5-yl)phenyl)tetrahydro-2H-thiopyran-4-carboxamide 1,1-dioxide]"
21,1560 nM,"CCOC(=O)c1coc(-c2cccc(N(CC34CCC(c5nc(C)no5)(CC3)CC4)C(=O)C3CCCCC3)c2)n1 [Example 19, Ethyl 2-(3-(N-((4-(3-methyl-1,2,4-oxadiazol-5-yl)bicyclo[2.2.2]octan-1-yl)methyl)cyclohexanecarboxamido)phenyl)oxazole-4-carboxylate]"
22,194 nM,"CC(C)(O)c1coc(-c2cccc(N(CC34CCC(c5nc(C6CC6)no5)(CC3)CC4)C(=O)C3CCCCC3)c2)n1 [Example 21, N-((4-(3-cyclopropyl-1,2,4-oxadiazol-5-yl)bicyclo[2.2.2]octan-1-yl)methyl)-N-(3-(4-(2-hydroxypropan-2-yl)oxazol-2-yl)phenyl)cyclohexanecarboxamide]"
23,37 nM,"O=C(C1CCCCC1)N(CC12CCC(c3nc(C4CC4)no3)(CC1)CC2)c1cccc(-c2cnc(C3CC3)o2)c1 [Example 22, N-((4-(3-cyclopropyl-1,2,4-oxadiazol-5-yl)bicyclo[2.2.2]octan-1-yl)methyl)-N-(3-(2-cyclopropyloxazol-5-yl)phenyl)cyclohexanecarboxamide]"
